Measured values from PubChem BioAssay (NCI).
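Cells were grown in 96-well plates and exposed to each compound for 48 hours at five concentrations; endpoints were interpolated linearly between bracketing concentrations, or set to the highest concentration if not reached. GI50: concentration for 50% inhibition of growth. TGI is the concentration that stops growth completely.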

Assays:
Test in all cases: NCI-60 cell line screen, 48 h
NCI/ADR-RES ovarian = tested on: NCI/ADR-RES ovarian
NCI-H460 lung = tested on: NCI-H460 lung
TK-10 renal = tested on: TK-10 renal
HCT-116 colon = tested on: HCT-116 colon
HOP-92 NSCLC = tested on: HOP-92 NSCLC
MDA-MB-435 = tested on: MDA-MB-435
OVCAR-3 ovarian = tested on: OVCAR-3 ovarian
OVCAR-8 ovarian = tested on: OVCAR-8 ovarian
RXF 393 renal = tested on: RXF 393 renal
HL-60(TB) leukemia = tested on: HL-60(TB) leukemia
SK-MEL-2 melanoma = tested on: SK-MEL-2 melanoma
BT-549 breast = tested on: BT-549 breast
U251 CNS = tested on: U251 CNS
M14 melanoma = tested on: M14 melanoma
MDA-MB-231 breast = tested on: MDA-MB-231 breast
RPMI-8226 leukemia = tested on: RPMI-8226 leukemia
HCC-2998 colon = tested on: HCC-2998 colon
UACC-62 melanoma = tested on: UACC-62 melanoma
NCI-H226 lung = tested on: NCI-H226 lung
CAKI-1 renal = tested on: CAKI-1 renal
SW-620 colon = tested on: SW-620 colon
HOP-62 NSCLC = tested on: HOP-62 NSCLC
SF-295 CNS = tested on: SF-295 CNS
OVCAR-5 ovarian = tested on: OVCAR-5 ovarian
SK-OV-3 ovarian = tested on: SK-OV-3 ovarian
SK-MEL-5 melanoma = tested on: SK-MEL-5 melanoma
SK-MEL-28 melanoma = tested on: SK-MEL-28 melanoma
MOLT-4 leukemia = tested on: MOLT-4 leukemia
MALME-3M melanoma = tested on: MALME-3M melanoma
OVCAR-4 ovarian = tested on: OVCAR-4 ovarian

Q: What does the source list for `Cc1ccc(C2CC(c3ccc(NC(=O)Nc4ccccc4)cc3)=NN2c2ccc(S(N)(=O)=O)cc2)cc1` (centres undefined)?
A: TGI (NCI/ADR-RES ovarian): 11 µM; GI50 (NCI-H460 lung): 2990 nM; TGI (NCI-H460 lung): 12.5 µM; GI50 (TK-10 renal): 9.93 µM; TGI (TK-10 renal): 22.2 µM; GI50 (HCT-116 colon): 2990 nM; TGI (HCT-116 colon): 13.5 µM; GI50 (HOP-92 NSCLC): 3.21 µM; TGI (HOP-92 NSCLC): 14.8 µM; GI50 (MDA-MB-435): 6.83 µM; TGI (MDA-MB-435): 21.3 µM; GI50 (OVCAR-3 ovarian): 3.97 µM; TGI (OVCAR-3 ovarian): 18.7 µM; GI50 (OVCAR-8 ovarian): 5.58 µM; TGI (OVCAR-8 ovarian): 21.4 µM; GI50 (RXF 393 renal): 13.1 µM; TGI (RXF 393 renal): 27.6 µM; GI50 (HL-60(TB) leukemia): 2130 nM; TGI (HL-60(TB) leukemia): 10.6 µM; GI50 (SK-MEL-2 melanoma): 7.4 µM; TGI (SK-MEL-2 melanoma): 21.5 µM; GI50 (BT-549 breast): 7.84 µM; TGI (BT-549 breast): 20.9 µM; GI50 (U251 CNS): 6.86 µM; TGI (U251 CNS): 20.3 µM; GI50 (M14 melanoma): 9.27 µM; TGI (M14 melanoma): 27.2 µM; GI50 (MDA-MB-231 breast): 12.3 µM; TGI (MDA-MB-231 breast): 25.3 µM; GI50 (RPMI-8226 leukemia): 3.8 µM; TGI (RPMI-8226 leukemia): 35.9 µM; GI50 (HCC-2998 colon): 2650 nM; TGI (HCC-2998 colon): 8.77 µM; GI50 (UACC-62 melanoma): 10.4 µM; TGI (UACC-62 melanoma): 22.6 µM; GI50 (NCI-H226 lung): 10.9 µM; TGI (NCI-H226 lung): 24.9 µM; GI50 (CAKI-1 renal): 10.4 µM; TGI (CAKI-1 renal): 22.5 µM; GI50 (SW-620 colon): 5.53 µM; TGI (SW-620 colon): 22.3 µM; GI50 (HOP-62 NSCLC): 13.3 µM; TGI (HOP-62 NSCLC): 28.7 µM; GI50 (SF-295 CNS): 5.34 µM; TGI (SF-295 CNS): 18.8 µM; GI50 (OVCAR-5 ovarian): 12.4 µM; TGI (OVCAR-5 ovarian): 25.2 µM; GI50 (SK-OV-3 ovarian): 12.9 µM; TGI (SK-OV-3 ovarian): 27.1 µM; GI50 (SK-MEL-5 melanoma): 15.5 µM; TGI (SK-MEL-5 melanoma): 29.5 µM; GI50 (SK-MEL-28 melanoma): 10.5 µM; TGI (SK-MEL-28 melanoma): 22.5 µM; GI50 (MOLT-4 leukemia): 2980 nM; TGI (MOLT-4 leukemia): 14.1 µM; GI50 (MALME-3M melanoma): 7.88 µM; TGI (MALME-3M melanoma): 20.8 µM; GI50 (OVCAR-4 ovarian): 4.5 µM; TGI (OVCAR-4 ovarian): 17.2 µM
